Patent US10543250B2, “Antimicrobial fusion peptides” (Los Angeles Biomedical Research Institute at Harbor-UCLA …, priority 2015, dated 2020)
“Also recorded” adds a separate entry of the source.

Key:
[1] = system: MDRAB clinical isolate HUMC-1; test: Neutropenic murine model of MDRAB pneumonia; assay type: in vivo, Acinetobacter baumannii; conditions: for survival: neutropenic mice, aerosolized MDRAB HUMC-1, treatment for 3d, survival monitored to day 21, peptide 12.5 mg/kg IV qd, imipenem 15 mg/kg IP bid
Protocol: Neutropenic mice (cortisone acetate [250 mg/kg; subQ]+cyclophosphamide [200 mg/kg; IP] on study days-2, +3, and +8) were infected on day 0 (aerosolized; MDRAB clinical isolate HUMC-1; 5×10^8 CFU; lung Cx-positive). Treatment initiated 4 hr or 24 hr post-infection and continued for 3d. Groups:control (PBS); imipenem (15 mg/kg; IP; bid); γ-RP-1 (12.5 mg/kg; IV; qd); γ-RP-1 (12.5 mg/kg; IV; qd). Survival was then monitored to day 21. At end point or 21d, lungs and spleens were cultured. Outcomes were compared by non-parametric analysis. All studies adhered to institutional and AAALAC animal care policies.

[2] = system: 3D7 P. falciparum; test: In vitro antimalarial activity; assay type: cell-based; conditions: at 12.5 mg/ml after incubation for 96 hour
[3] = system: P. berghei ANKA luciferase; test: In vivo antimalarial efficacy in infected mice; conditions: 12.5 mg/kg, IV treatment daily for 5 days, compared to chloroquine at the same concentration
From the text: FIGS. 15 and 16 show the in vivo antimalarial activity of γ-RP-1 on Luciferase-expressing P. berghei ANKA (FIG. 15: single dose; FIG. 16: double dose). CQ: chloroquine.

[4] = Peptide pI; assay type: physicochemical
Protocol: Antimicrobial agents: RP-1 (pI/Mw: 10.82/2162.78 Da) is an 18-amino synthetic peptide derived from PF-4 family kinocidins. γ-RP-1 (pI/Mw: 10.64/4444.5 Da) is a 39-amino synthetic peptide comprising a CXCL4 kinocidin γ-core motif-RP-1 construct. Stock peptides dissolved in sterile ddH2O were diluted in suitable buffers. Antibiotics were purchased as purified powder and re-suspended in PBS per the manufacturer guidelines.

[5] = system: wide panel of Gram-negative human pathogens; test: Efficacy against panel of Gram-negative human pathogens at pH 5.5 and 7.5 (Example 4); assay type: cell-based; conditions: compared to any other peptide tested
Protocol: The efficacy of RP-1 and γ-RP-1, along with a number of peptide variants and suitable control, was tested against a wide panel of Gram-negative human pathogens.

[6] = system: wide panel of human pathogens; test: Efficacy of γ-RP-1 variants against panel of human pathogens at pH 5.5 and 7.5 (Example 6); assay type: cell-based; conditions: pH 5.5 and 7.5, FIG. 16A-B
Protocol: The efficacy of RP-1 and γ-RP-1, along with a number of peptide variants and suitable control, was tested against a wide panel of human pathogens.
In another experiments, the following peptides were tested.

[7] = system: MDRAB; test: Biomatrix assay: efficacy in human blood, plasma or serum; assay type: cell-based, Acinetobacter baumannii; conditions: human blood ex vivo
Protocol: Efficacies of RP-1 and γ-RP-1 in human blood, plasma, or serum were assessed. Peptide was added to biomatrix simultaneously with MDRAB (final inoculum 10^5 CFU/ml; peptide range […]; volume 100 μl). Controls were performed using Mueller Hinton broth (MHB; CLSI). Following incubation (constant agitation; 2 h, 37° C.), survival was quantified by culture (n=3) upon blood agar and defined as CFU/ml. Independent minimum, n=2.

Molecule	survival [1] [%]	in vitro antimalarial effects, dose-response curve [2]	antimalarial activity in vivo [3]	pI [4]	Total MDRAB burden (CFU) in lungs and spleens, reduction ([1]; as compared to control or imipenem treatments alone) [log CFU]	efficacy vs. MDRAB in a murine model of neutropenic pneumonia ([1]; in vivo)	efficacy against individual organisms and across the broader panel [5]	efficacy compared with RP-1 across bacterial species [6]	efficacy in human blood [7]
C[C@@H](O)[C@H]1C(=O)N2C(C(=O)O)=C(SCCN=CN)C[C@H]12 [imipenem, reference compound]	16								
γ-RP-1 (CPTAQLIATLKNGRKICLDLQALYKKFKKKLLKSLKRLG)	72	excellent IC50 curve	moderate antimalarial activity	10.64	> 2	significant efficacy	overall best efficacy	higher efficacy than RP-1	significant efficacy; also recorded: greater efficacy
